From patent US5538949A, “Modified platelet factor-4 and cleaved platelet factor 4” (Eli Lilly and Company, priority 1995, dated 1996)
Blank lines part the entries; values can stand above or below the molecule they belong to. Positions of bridges follow the written chain, without caps; N, C: chain ends. Chains are numbered I, II in the order given. No end group written: not given here.

How the values were obtained:
endothelial cells = assay: Endothelial cell proliferation inhibition assay; format: cell-based, bovine; conditions: endothelial cells with 20 ng/ml fibroblast growth factor, four days growth, cell count; for IC50, inhibition of endothelial cell proliferation: average of 4 wells; for IC50: molar figure in parentheses
Protocol: Primary retinal capillary endothelial cell cultures were prepared in substantial accordance with the procedure described in Buzney et al., Retinal Vascular Endothelial Cells and Pericytes: Differential Growth Characteristics in vitro, Invest. Ophthalmol. Visual Sci. 24: 470-483 (1983) and separated from contaminating cells as described in Voyta et al., Identification and Isolation of Endothelial Cells Based on their Increased Uptake of Acetylated-low density Lipoprotein, J. Cell Biol. 99: 2034-2040 (1981).
Alternatively, bovine heart endothelial cells were obtained (American Type Culture Collection; Rockville, Md. 20852) for use in the assay. Irrespective of source, the endothelial cells were seeded into 24 well tissue culture plates at a cell density of 10,000 cells/well in Dulbecco's modified Eagle Medium (GIBCO; Grand Island, N.Y.) supplemented with 5% bovine serum albumin, 1% penicillin-streptomycin, 1% L-glutamine, and 20 ng/ml fibroblast growth factor. Immediately after seeding the cells, various amounts of PF-4 (Sigma Chemical Co.; St. Louis, Mo. 63178), MPF-4, or CPF-4 (isolated as describe in the above examples) were added to individual growth wells. MPF-4 and CPF-4 were tested at final concentrations ranging from 0.001 to 1 μ/ml. For comparison, native PF-4 was tested over a range of 0.001 to 3 μ/ml, and supplemented medium alone served as the negative control. The endothelial cell cultures were allowed to grow for four days at 37 C., 5% CO2 in a humidified tissue culture incubator. The cultures were then harvested individually by trypsinization and counted using a Zm-Coulter Counter (Coulter Electronics. Inc.; Opa Locka, Fla. 33054).
The results were plotted in FIG. 1, and each point on the graph represented the average of 4 data points; ie […]. […] The inhibitory concentration for MPF-4 is close to the physiological range of PF-4 found in human plasma (Id.).

[1] = Heparin affinity chromatography; conditions: elute in high-affinity heparin binding fraction (0.7M to 2.0M NaCl)
Excerpt: The eluted proteins are then contacted with a heparin affinity resin. The ordinarily skilled artisan will readily realize that this step is best achieved in a column chromatography mode. Heparin affinity columns are commercially available from some of the same vendors mentioned above. In this step, the molecules of interest, both MPF-4 or CPF-4, bind to the heparin column and are eluted using an increasing linear salt gradient. The preferred salt is NaCl, and the portion of the gradient that is preferably collected is the 0.1-2.0M portion. The more highly preferred portion of the gradient to collect is the 0.7-2.0M portion.
The C4-pool was further fractionated by heparin affinity chromatography on a Econo-pac™ 5 ml heparin-sepharose cartridge (BioRad, Richmond, Calif. 94804). The bound proteins were eluted by a linear gradient of 0 to 2.0M NaCl in phosphate buffer saline (PBS) at a flow rate of 2.0 ml/min. The proteins that eluted from the column were pooled into three fractions: (1) non-heparin binding (flow through), (2) low-affinity heparin binding (0 to 0.7M NaCl), and (3) high-affinity heparin binding (0.7M to 2.0M NaCl) fractions.

Molecule: PF-4: native human platelet factor-4 (Sigma Chemical Co.), tested for comparison [reference compound]
IC50, inhibition of endothelial cell proliferation (endothelial cells): 800 to 1000 ng/mL
IC50 (endothelial cells): ~130 nM

heparin binding [1]: bind heparin
Molecule: MPF-4: 54 amino acid protein, SEQ ID NO:1; homologous with the 54 C-terminal residues of PF-4, beginning with Ser-17 (SQVRPRHITSLEVIKAGPHCPTAQLIATLKNGRKICLDLQAPLYKKIIKKLLES)
IC50, inhibition of endothelial cell proliferation (endothelial cells): 30 to 50 ng/mL
IC50 (endothelial cells): ~7 nM

heparin binding [1]: bind heparin
B1: CPF-4: 16 amino acid chain (SEQ ID NO:2) disulfide bonded to the 54 amino acid chain of MPF-4 (SEQ ID NO:1) (protein)
chain 1: EAEEDGDLQCLCVKTT
chain 2: SQVRPRHITSLEVIKAGPHCPTAQLIATLKNGRKICLDLQAPLYKKIIKKLLES
modifications: disulfide I:10-II:20, I:12-II:36; not fully specified
IC50, inhibition of endothelial cell proliferation (endothelial cells): approximately 150 ng/ml
IC50 (endothelial cells): 20 nM
